# Values quoted from earlier work as cited in patent EP0315648B1 (THE UPJOHN COMPANY, priority 1986, dated 1988).
# Details: Hildebrand solubility coefficient of the solvent (scale of Vaughn)
row,Structure (SMILES),HSC
1,CC(O)CO (centres unmarked) [propylene glycol],14
2,CCCCCCCC/C=C\CCCCCCCCO [oleyl alcohol],9.8
